tested on: not listed separately; experiment: Oral bioavailability in BALB/c mouse at 10 mg/kg by LC-MS/MS analysis; format: ADME, organism-based; settings: in vivo; call rule not given here

Going from `O=C(O)CCc1ccc(-c2ccc(-n3ccnc3)cc2)n1-c1ccc(O)cc1` to `Cc1nccn1-c1ccc(-c2ccc(CCC(=O)O)n2-c2ccc(O)cc2)s1`, the bioavailability falls from 6.8% to 3.9%.

tested on: A549; experiment: Cytotoxicity against human A549 cells after 48 hrs by MTS assay; format: cell-based; settings: A549, 48 h

`Cc1cc(S(N)(=O)=O)ccc1-n1c(CCC(=O)O)ccc1-c1ccc(-n2ccnc2C)s1` and `Cc1nccn1-c1ccc(-c2ccc(CCC(=O)O)n2-c2ccc(S(N)(=O)=O)cc2)s1` cannot be ordered by IC50: > 150000 nM for the first, > 150000 nM for the second.

`Cc1nccn1-c1ccc(-c2ccc(CCC(=O)O)n2-c2ccc(O)cc2)s1` and `Cc1cc(NS(C)(=O)=O)ccc1-n1c(CCC(=O)O)ccc1-c1cc(-n2ccnc2C)cs1` cannot be ordered by IC50: > 150000 nM for the first, > 150000 nM for the second.

tested on: not listed separately; experiment: Inhibition of Smt-tagged S-nitrosoglutathione reductase expressed in Escherichia coli using […] as substrate for 3 mins by spectrophotometric analysis; settings: not given

In the case of `CCOC(=O)CCc1ccc(-c2ccc(OC)cc2)n1-c1ccc(CC(N)=O)cc1`, the IC50 is reported as “Not Active”.

same assay, conditions: read-out: IC50

Going from `CCOC(=O)CCc1ccc(-c2ccc(OC)cc2)n1-c1ccc(C(=O)NC)cc1C` to `CCOC(=O)CCc1ccc(-c2ccc(OC)cc2)n1-c1ccc(C(=O)NCCO)cc1C`, the IC50 falls from 2410 nM to 660 nM (3.7-fold). The second is the more potent here.

Going from `CCOC(=O)CCc1ccc(-c2ccc(OC)cc2)n1-c1ccc(C(=O)NC)cc1` to `CCOC(=O)CCc1ccc(-c2ccc(OC)cc2)n1-c1ccc(C(C)=O)cc1`, the IC50 falls from 4560 nM to 960 nM (4.8-fold). The second is the more potent here.

First: Cc1cc(NS(C)(=O)=O)ccc1-n1c(CCC(=O)O)ccc1-c1ccc(-n2ccnc2C)cc1
Second: CC(=O)Nc1ccc(-n2c(CCC(=O)O)ccc2-c2ccc(-n3ccnc3C)cc2)c(C)c1
The IC50 of the first is 2.5-fold lower: 180 nM for the first, 450 nM for the second. The first is the more potent here.

First: CCOC(=O)CCc1ccc(-c2ccc(OC)cc2)n1-c1ccc(C(=O)NCCOC)cc1C
Second: CCOC(=O)CCc1ccc(-c2ccc(OC)cc2)n1-c1ccc(C(=O)N(C)C)cc1C
The IC50 of the first is 1.8-fold lower: 730 nM for the first, 1310 nM for the second. The first is the more potent here.

First: CCOC(=O)CCc1ccc(-c2ccc(OC)cc2)n1-c1ccc(OC)cc1
Second: CCOC(=O)CCc1ccc(-c2ccc(OC)cc2)n1-c1ccc(Br)cc1
The IC50 of the first is 3.2-fold lower: 1020 nM for the first, 3250 nM for the second.

First: Cc1cc(O)ccc1-n1c(CCC(=O)O)ccc1-c1ccc(-n2ccnc2)cc1
Second: Cc1cc(N)ccc1-n1c(CCC(=O)O)ccc1-c1ccc(-n2ccnc2)cc1
The IC50 of the first is 7.8-fold lower: 180 nM for the first, 1410 nM for the second. The first is the more potent here.

`O=C(O)CCc1ccc(-c2ccc(-n3ccnc3)cc2)n1-c1ccc(O)cc1` and `Cc1nccn1-c1ccc(-c2ccc(CCC(=O)O)n2-c2ccc(O)cc2)cc1` are within 1.5-fold of each other in IC50: 39 nM for the first, 54 nM for the second.

`CCOC(=O)CCc1ccc(-c2ccc(OC)cc2)n1-c1ccc(C(=O)Nc2ccnnc2)cc1C` and `CCOC(=O)CCc1ccc(-c2ccc(OC)cc2)n1-c1ccc(C(=O)Nc2cccnc2)cc1C` are within 1.5-fold of each other in IC50: 640 nM for the first, 440 nM for the second.

Going from `CC(=O)Nc1ccc(-n2c(CCC(=O)O)ccc2-c2cc(-n3ccnc3C)cs2)cc1` to `Cc1nccn1-c1csc(-c2ccc(CCC(=O)O)n2-c2ccc(NS(C)(=O)=O)cc2)c1`, the IC50 rises from 140 nM to 360 nM (2.6-fold). The first is the more potent here.

First: CCOC(=O)CCc1ccc(-c2ccc(OC)cc2)n1-c1ccc(OC)cc1C
Second: CCOC(=O)CCc1ccc(-c2ccc(OC)cc2)n1-c1ccc(C)cc1C
The IC50 of the first is 4.9-fold lower: 1800 nM for the first, 8840 nM for the second.

`CCOC(=O)CCc1ccc(-c2ccc(OC)cc2)n1-c1ccc(NC(N)=O)cc1` and `CCOC(=O)CCc1ccc(-c2ccc(OC)cc2)n1-c1ccc(NC(C)=O)cc1` are within 1.5-fold of each other in IC50: 4800 nM for the first, 3270 nM for the second.

First: CC(=O)Nc1ccc(-n2c(CCC(=O)O)ccc2-c2ccc(-n3ccnc3C)cc2)cc1
Second: Cc1nccn1-c1ccc(-c2ccc(CCC(=O)O)n2-c2ccc(NS(C)(=O)=O)cc2)cc1
The IC50 of the first is 2.2-fold higher: 3890 nM for the first, 1790 nM for the second. The second is the more potent here.

`Cc1cc(S(N)(=O)=O)ccc1-n1c(CCC(=O)O)ccc1-c1ccc(-n2ccnc2C)s1` and `Cc1nccn1-c1ccc(-c2ccc(CCC(=O)O)n2-c2ccc(S(N)(=O)=O)cc2)s1` are within 1.5-fold of each other in IC50: 22 nM for the first, 23 nM for the second.

Going from `Cc1nccn1-c1cc(-c2ccc(CCC(=O)O)n2-c2ccc(O)cc2)cs1` to `Cc1nccn1-c1csc(-c2ccc(CCC(=O)O)n2-c2ccc(O)cc2)c1`, the IC50 rises from 45 nM to 96 nM (2.1-fold).

`Cc1nccn1-c1ccc(-c2ccc(CCC(=O)O)n2-c2ccc(O)cc2)s1` and `O=C(O)CCc1ccc(-c2ccc(-n3ccnc3)s2)n1-c1ccc(O)cc1` are within 1.5-fold of each other in IC50: 36 nM for the first, 32 nM for the second.

Going from `Cc1cc(C(=O)O)ccc1-n1c(CCC(=O)O)ccc1-c1ccc(-n2ccnc2)cc1` to `CC(=O)Nc1ccc(-n2c(CCC(=O)O)ccc2-c2ccc(-n3ccnc3)cc2)c(C)c1`, the IC50 falls from 110 nM to 56 nM (2-fold). The second is the more potent here.

`COCC(=O)Nc1ccc(-n2c(CCC(=O)O)ccc2-c2ccc(-n3ccnc3)cc2)c(C)c1` and `CCC(=O)Nc1ccc(-n2c(CCC(=O)O)ccc2-c2ccc(-n3ccnc3)cc2)c(C)c1` are within 1.5-fold of each other in IC50: 96 nM for the first, 88 nM for the second.

Going from `CCOC(=O)CCc1ccc(-c2ccc(OC)cc2)n1-c1ccc(O)cc1C` to `CCOC(=O)CCc1ccc(-c2ccc(OC)cc2)n1-c1ccc(S(N)(=O)=O)cc1C`, the IC50 falls from 1550 nM to 330 nM (4.7-fold). The second is the more potent here.

Going from `CCOC(=O)CCc1ccc(-c2ccc(OC)cc2)n1-c1ccc(C(=O)Nc2ccncc2)cc1C` to `CCOC(=O)CCc1ccc(-c2ccc(Br)cc2)n1-c1ccc(C(=O)Nc2ccncc2)cc1C`, the IC50 falls from 170 nM to 61 nM (2.8-fold).

First: CCOC(=O)CCc1ccc(-c2ccc(OC)cc2)n1-c1ccc(C(N)=O)cc1
Second: CCOC(=O)CCc1ccc(-c2ccc(OC)cc2)n1-c1ccc(O)cc1
The IC50 of the first is 1.9-fold higher: 460 nM for the first, 240 nM for the second.

Compared with `CCOC(=O)CCc1ccc(-c2ccc(OC)cc2)n1-c1ccc(C(=O)Nc2cncnc2)cc1C`, `CCOC(=O)CCc1ccc(-c2ccc(OC)cc2)n1-c1ccc(NS(N)(=O)=O)cc1C` is 5.3-fold lower in IC50: 3740 nM for the first, 710 nM for the second. The second is the more potent here.

First: Cc1cc(NS(C)(=O)=O)ccc1-n1c(CCC(=O)O)ccc1-c1cc(-n2ccnc2C)cs1
Second: Cc1cc(CN)ccc1-n1c(CCC(=O)O)ccc1-c1ccc(-n2ccnc2)cc1
The IC50 of the first is 21-fold lower: 76 nM for the first, 1590 nM for the second.

tested on: not listed separately; experiment: Plasma clearance in BALB/c mouse at 2 mg/kg, iv by LC-MS/MS analysis; format: ADME, organism-based; design: dose 2 mg/kg, route intravenous; settings: not given

Compared with `O=C(O)CCc1ccc(-c2ccc(-n3ccnc3)cc2)n1-c1ccc(O)cc1`, `Cc1nccn1-c1ccc(-c2ccc(CCC(=O)O)n2-c2ccc(O)cc2)s1` is 1.6-fold lower in clearance: 37.1 mL/min/kg for the first, 23.9 mL/min/kg for the second.

Source: ChEMBL document CHEMBL2010673, “Structure-activity relationship of pyrrole based S-nitrosoglutathione reductase inhibitors: carboxamide modification” (Bioorg Med Chem Lett, 2012)
